Calls of active or inactive are those of the source. The calls are words filed in the database; no cut-off is given here. Non-standard residues stand in square brackets, D forms with d. Residues, ends and D or L forms follow the SMILES beside them. *: point of attachment. Benzoyl(4-OPh(4-CONH2)) = NC(=O)c1ccc(Oc2ccc(C(=O)*)cc2)cc1; NMeE = CN[C@@H](CCC(=O)O)C(=O)O; β3hP = O=C(O)C[C@@H]1CCCN1; Dab = NCC[C@H](N)C(=O)O; Ava = NCCCCC(=O)O
Experiments:
[1] = Solubility of the compound in phosphate buffer at pH 9 by HPLC analysis; type: physicochemical
[2] = Solubility of the compound in acetate buffer at pH 4.0 by HPLC analysis; type: physicochemical
[3] = Solubility of the compound in phosphate buffer at pH 7.4 by HPLC analysis; type: physicochemical
[4] = Clearance in fasted Sprague-Dawley rat at 1 mg/kg, iv by LC-MS/MS analysis; type: ADME, organism-based; details: in vivo
[5] = Metabolic stability in rat hepatocytes assessed as parent compound remaining incubated for 1 hr by LC-MS/MS; type: ADME, cell-based, Hepatocyte; details: read-out: Stability
[6] = Volume of distribution at steady state in fasted Sprague-Dawley rat at 1 mg/kg, iv by LC-MS/MS analysis; type: ADME, organism-based; details: in vivo, read-out: Vdss
[7] = Half life in fasted Sprague-Dawley rat at 1 mg/kg, iv by LC-MS/MS analysis; type: ADME, organism-based; details: in vivo
[8] = Chemical stability of the compound in acetate buffer at pH 4.0 assessed as residual rate incubated for 2 weeks by HPLC analysis; type: physicochemical; details: read-out: Stability
Interstitial collagenase = biological target: T1, Interstitial collagenase (Homo sapiens, UniProt P03956); experiment: Inhibition of recombinant human MMP1 using MOCAc-Lys-Pro-Leu-Gly-Leu-A2pr(Dnp)-Ala-Arg-NH2 as substrate preincubated for 15 mins followed by substrate addition by fluroscence based assay
T1 sequence (P03956 whole entry): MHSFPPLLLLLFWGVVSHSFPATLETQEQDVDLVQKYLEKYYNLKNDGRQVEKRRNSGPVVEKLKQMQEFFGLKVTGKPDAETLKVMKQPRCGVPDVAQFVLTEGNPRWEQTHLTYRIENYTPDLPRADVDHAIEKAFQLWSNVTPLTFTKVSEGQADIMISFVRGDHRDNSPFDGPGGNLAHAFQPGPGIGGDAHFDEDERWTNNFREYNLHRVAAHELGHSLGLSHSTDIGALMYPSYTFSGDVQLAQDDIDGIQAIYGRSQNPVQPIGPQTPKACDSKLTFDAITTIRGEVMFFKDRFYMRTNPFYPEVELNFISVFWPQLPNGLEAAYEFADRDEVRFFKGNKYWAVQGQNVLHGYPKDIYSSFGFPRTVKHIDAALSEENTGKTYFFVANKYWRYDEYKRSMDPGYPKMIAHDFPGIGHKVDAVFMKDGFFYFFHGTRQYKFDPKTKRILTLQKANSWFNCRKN

Stromelysin-1 = Stromelysin-1 (Homo sapiens, UniProt P08254); experiment: Inhibition of recombinant human MMP3 using MOCAc-Lys-Pro-Leu-Gly-Leu-A2pr(Dnp)-[…] as substrate preincubated for 15 mins followed by substrate addition by fluroscence based assay
Matrilysin = biological target: T2, Matrilysin (Homo sapiens, UniProt P09237)
T2 sequence (P09237 whole entry): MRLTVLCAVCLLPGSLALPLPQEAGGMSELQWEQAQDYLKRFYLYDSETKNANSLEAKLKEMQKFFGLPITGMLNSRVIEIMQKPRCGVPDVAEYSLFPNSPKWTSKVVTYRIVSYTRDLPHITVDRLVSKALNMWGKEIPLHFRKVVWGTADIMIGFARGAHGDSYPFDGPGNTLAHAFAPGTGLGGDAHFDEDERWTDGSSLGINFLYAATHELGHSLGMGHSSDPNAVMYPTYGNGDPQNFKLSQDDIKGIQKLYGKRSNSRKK

Neutrophil collagenase = Neutrophil collagenase (Homo sapiens, UniProt P22894)
[9] = biological target: Matrix metalloproteinase-9 (Homo sapiens, UniProt P14780)
[10] = biological target: Matrix metalloproteinase-14 (Homo sapiens, UniProt P50281); experiment: Inhibition of recombinant human MMP14 using MOCAc-Lys-Pro-Leu-Gly-Leu-A2pr(Dnp)-Ala-Arg-NH2 as substrate preincubated for 15 mins followed by substrate addition by fluroscence based assay
CYP1A2 = CYP1A2 (Homo sapiens, UniProt P05177); experiment: Inhibition of CYP1A2 in human liver microsomes at 10 uM using phenacetin as substrate for 5 mins followed by NADPH addition and measured after 10 mins by LC/MS/MS analysis relative to control; type: ADME, Microsome; details: probe phenacetin, time 15 min
CYP2C19 = CYP2C19 (Homo sapiens, UniProt P33261); experiment: Inhibition of CYP2C19 in human liver microsomes at 10 uM using mephenytoin as substrate preincubated for 5 mins followed by addition of NADPH measured after 10 mins by LC/MS/MS analysis relative to control; type: ADME, Microsome; details: probe mephenytoin, time 15 min
CYP2D6 = CYP2D6 (Homo sapiens, UniProt P10635); experiment: Inhibition of CYP2D6 in human liver microsomes at 10 uM using bufuralol as substrate preincubated for 5 mins followed by addition of NADPH measured after 10 mins by LC/MS/MS analysis relative to control; type: ADME, Microsome; details: probe bufuralol, time 15 min
CYP2C9 = CYP2C9 (Homo sapiens, UniProt P11712); experiment: Inhibition of CYP2C9 in human liver microsomes at 10 uM using diclofenac as substrate preincubated for 5 mins followed by addition of NADPH measured after 5 mins by LC/MS/MS analysis relative to control; type: ADME, Microsome; details: probe diclofenac, time 10 min
CYP3A4 = CYP3A4 (Homo sapiens, UniProt P08684); experiment: Inhibition of CYP3A4 in human liver microsomes at 10 uM using midazolam as substrate preincubated for 5 mins followed by addition of NADPH measured after 5 mins by LC/MS/MS analysis relative to control; type: ADME, Microsome; details: probe midazolam
[11] = biological target: Voltage-gated inwardly rectifying potassium channel KCNH2 (Homo sapiens, UniProt Q12809); experiment: Inhibition of human ERG expressed in CHO cells by Qpatch-clamp method; type: toxicity, cell-based
HepG2 [12] = experiment: Cytotoxicity against human HepG2 cells assessed as reduction in cell viability at 10 uM after 48 hrs by CCK8 assay; type: functional
HepG2 [13] = experiment: Cytotoxicity against human HepG2 cells assessed as reduction in cell viability at 50 uM after 48 hrs by CCK8 assay; type: functional
[14] = Metabolic stability in human hepatocytes assessed as parent compound remaining measured after 1 hr by LC-MS/MS analysis; type: ADME, cell-based, Hepatocyte; details: read-out: Stability
[15] = Metabolic stability in human serum assessed as parent compound remaining incubated for 6 hrs by LC-MS/MS analysis; type: ADME, cell-free; details: read-out: Stability
[16] = Protein binding in human serum assessed as free fraction at 10 ug/ml incubated for 6 hrs by equilibrium dialysis based LC-MS/MS assay; type: ADME, cell-free; details: at 10 µg/mL
[17] = Protein binding in mouse serum assessed as free fraction at 10 ug/ml incubated for 6 hrs by equilibrium dialysis based LC-MS/MS assay; type: ADME, cell-free; details: at 10 µg/mL
Mus musculus [18] = experiment: Antifibrotic activity in C57BL/6N mouse model of bleomycin-induced idiopathic pulmonary fibrosis assessed as reduction of total collagen content at 0.03 to 1 mg/kg/day, sc via osmotic pumps dosed for 14 days; type: functional, organism-based; details: dose 0.03-1 mg/kg/day, time 14.0 day
Mus musculus [19] = experiment: Antifibrotic activity in C57BL/6N mouse model of bleomycin-induced idiopathic pulmonary fibrosis assessed as reduction of total collagen content at 0.03 mg/kg/day, sc via osmotic pumps dosed for 14 days; type: functional, organism-based; details: time 14.0 day
[20] = Free drug concentration in C57BL/6N mouse plasma at 0.03 mg/kg/day, sc via osmotic pumps dosed for 14 days; type: ADME, organism-based; details: in vivo, 336 h, time 14 day
physchem [21] = details: buffer, pH 7.4
physchem [22] = details: phosphate buffer, pH 7.4
physchem [23] = details: phosphate buffer, pH 9
[24] = Clearance in fasted Sprague-Dawley rat at 0.4 mg/kg, iv by LC-MS/MS analysis; type: ADME, organism-based; details: in vivo
[25] = Volume of distribution at steady state in fasted Sprague-Dawley rat at 0.4 mg/kg, iv by LC-MS/MS analysis; type: ADME, organism-based; details: in vivo, read-out: Vdss
[26] = Half life in fasted Sprague-Dawley rat at 0.4 mg/kg, iv by LC-MS/MS analysis; type: ADME, organism-based; details: in vivo
[27] = biological target: 72 kDa type IV collagenase (Homo sapiens, UniProt P08253)
Collagenase 3 = Collagenase 3 (Homo sapiens, UniProt P45452)
[28] = biological target: Macrophage metalloelastase (Homo sapiens, UniProt P39900)
Macrophage metalloelastase, sequence (P39900 whole entry): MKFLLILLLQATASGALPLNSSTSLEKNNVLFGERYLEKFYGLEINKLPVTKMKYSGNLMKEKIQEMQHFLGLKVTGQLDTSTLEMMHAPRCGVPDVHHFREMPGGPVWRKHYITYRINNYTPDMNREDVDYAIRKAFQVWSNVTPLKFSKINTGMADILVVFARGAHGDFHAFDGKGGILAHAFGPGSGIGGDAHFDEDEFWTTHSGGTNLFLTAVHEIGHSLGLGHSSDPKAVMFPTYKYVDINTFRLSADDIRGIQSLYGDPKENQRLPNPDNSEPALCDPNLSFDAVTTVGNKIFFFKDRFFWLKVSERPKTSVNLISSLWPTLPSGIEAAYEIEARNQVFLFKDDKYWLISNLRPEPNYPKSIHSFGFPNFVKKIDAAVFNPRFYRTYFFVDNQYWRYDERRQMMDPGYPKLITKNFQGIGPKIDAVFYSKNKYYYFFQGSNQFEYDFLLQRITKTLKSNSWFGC

Neutrophil collagenase, sequence (P22894 whole entry): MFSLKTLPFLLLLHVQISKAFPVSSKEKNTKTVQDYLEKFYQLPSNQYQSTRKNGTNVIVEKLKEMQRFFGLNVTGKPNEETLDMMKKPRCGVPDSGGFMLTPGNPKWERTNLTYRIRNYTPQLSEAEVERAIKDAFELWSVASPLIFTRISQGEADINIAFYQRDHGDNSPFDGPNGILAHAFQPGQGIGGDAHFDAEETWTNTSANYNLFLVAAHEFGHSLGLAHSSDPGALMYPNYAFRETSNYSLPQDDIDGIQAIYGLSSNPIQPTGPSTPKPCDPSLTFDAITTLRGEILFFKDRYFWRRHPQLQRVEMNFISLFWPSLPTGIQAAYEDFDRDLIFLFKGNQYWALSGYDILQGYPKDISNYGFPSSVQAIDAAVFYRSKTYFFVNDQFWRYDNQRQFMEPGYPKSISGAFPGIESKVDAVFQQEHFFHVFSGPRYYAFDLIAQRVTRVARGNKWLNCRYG
CYP1A2, sequence (P05177 whole entry): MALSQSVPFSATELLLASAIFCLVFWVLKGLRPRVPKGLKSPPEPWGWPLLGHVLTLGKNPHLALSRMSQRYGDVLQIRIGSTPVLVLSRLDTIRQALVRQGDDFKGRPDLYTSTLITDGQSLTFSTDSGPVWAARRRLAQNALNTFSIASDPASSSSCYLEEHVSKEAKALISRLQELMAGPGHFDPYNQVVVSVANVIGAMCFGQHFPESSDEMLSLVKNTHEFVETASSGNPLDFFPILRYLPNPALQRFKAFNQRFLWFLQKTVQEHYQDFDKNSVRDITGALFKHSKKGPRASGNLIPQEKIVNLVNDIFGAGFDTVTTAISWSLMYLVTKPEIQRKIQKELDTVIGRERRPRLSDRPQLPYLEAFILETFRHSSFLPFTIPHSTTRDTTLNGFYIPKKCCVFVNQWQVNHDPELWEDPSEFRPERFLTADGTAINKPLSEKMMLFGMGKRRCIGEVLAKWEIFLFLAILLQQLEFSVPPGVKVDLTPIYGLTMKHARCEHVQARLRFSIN
CYP2C9, sequence (P11712 whole entry): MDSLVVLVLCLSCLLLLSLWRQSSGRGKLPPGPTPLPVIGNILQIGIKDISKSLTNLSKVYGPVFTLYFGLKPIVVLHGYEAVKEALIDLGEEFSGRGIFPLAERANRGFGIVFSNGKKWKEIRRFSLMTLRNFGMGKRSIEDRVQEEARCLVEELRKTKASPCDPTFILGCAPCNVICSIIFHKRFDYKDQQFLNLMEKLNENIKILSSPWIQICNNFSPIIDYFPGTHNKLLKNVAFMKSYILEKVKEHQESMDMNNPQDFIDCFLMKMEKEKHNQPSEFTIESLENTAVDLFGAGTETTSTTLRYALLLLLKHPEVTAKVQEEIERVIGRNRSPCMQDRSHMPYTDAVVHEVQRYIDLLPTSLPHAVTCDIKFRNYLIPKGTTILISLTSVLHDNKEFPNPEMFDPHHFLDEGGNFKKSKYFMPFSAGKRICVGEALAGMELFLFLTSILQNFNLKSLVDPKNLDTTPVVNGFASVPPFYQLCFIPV
CYP2C19, sequence (P33261 whole entry): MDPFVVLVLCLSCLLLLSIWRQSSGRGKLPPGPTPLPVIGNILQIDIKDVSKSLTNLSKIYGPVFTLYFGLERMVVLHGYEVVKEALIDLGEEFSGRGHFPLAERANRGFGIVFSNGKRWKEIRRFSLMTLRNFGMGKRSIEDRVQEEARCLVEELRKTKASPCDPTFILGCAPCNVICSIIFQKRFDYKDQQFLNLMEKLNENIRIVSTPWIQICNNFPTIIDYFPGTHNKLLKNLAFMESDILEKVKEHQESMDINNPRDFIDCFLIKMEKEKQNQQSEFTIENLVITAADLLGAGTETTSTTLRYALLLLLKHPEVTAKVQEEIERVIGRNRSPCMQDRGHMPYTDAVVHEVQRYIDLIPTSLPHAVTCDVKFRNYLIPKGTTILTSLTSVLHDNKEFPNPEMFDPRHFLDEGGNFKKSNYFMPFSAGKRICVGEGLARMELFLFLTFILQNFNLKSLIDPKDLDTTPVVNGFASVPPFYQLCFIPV
CYP3A4, sequence (P08684 whole entry): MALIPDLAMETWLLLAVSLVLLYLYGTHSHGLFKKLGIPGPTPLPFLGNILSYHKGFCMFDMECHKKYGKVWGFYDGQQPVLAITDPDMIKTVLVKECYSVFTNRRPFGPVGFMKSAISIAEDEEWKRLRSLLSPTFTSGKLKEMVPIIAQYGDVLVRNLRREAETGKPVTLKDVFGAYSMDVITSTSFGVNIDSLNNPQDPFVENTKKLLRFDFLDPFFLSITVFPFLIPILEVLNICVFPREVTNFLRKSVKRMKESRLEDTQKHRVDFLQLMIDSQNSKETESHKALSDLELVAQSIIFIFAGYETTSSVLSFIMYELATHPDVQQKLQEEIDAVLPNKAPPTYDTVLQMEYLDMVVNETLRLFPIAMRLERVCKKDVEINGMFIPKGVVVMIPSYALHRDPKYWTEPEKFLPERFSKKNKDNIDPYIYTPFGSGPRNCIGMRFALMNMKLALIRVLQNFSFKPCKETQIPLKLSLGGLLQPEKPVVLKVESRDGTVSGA
Stromelysin-1, sequence (P08254 whole entry): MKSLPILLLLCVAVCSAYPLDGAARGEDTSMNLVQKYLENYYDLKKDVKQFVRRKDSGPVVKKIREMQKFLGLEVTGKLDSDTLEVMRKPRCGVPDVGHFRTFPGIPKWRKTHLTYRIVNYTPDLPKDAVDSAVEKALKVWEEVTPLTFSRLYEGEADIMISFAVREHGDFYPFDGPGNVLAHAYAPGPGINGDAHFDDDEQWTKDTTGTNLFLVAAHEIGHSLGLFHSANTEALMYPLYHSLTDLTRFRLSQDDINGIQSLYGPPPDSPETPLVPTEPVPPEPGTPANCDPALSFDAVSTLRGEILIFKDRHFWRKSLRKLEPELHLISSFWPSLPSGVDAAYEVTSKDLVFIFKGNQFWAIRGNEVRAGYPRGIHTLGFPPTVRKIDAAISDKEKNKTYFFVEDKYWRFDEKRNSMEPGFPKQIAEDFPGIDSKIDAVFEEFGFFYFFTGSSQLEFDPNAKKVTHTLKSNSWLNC
CYP2D6, sequence (P10635 whole entry): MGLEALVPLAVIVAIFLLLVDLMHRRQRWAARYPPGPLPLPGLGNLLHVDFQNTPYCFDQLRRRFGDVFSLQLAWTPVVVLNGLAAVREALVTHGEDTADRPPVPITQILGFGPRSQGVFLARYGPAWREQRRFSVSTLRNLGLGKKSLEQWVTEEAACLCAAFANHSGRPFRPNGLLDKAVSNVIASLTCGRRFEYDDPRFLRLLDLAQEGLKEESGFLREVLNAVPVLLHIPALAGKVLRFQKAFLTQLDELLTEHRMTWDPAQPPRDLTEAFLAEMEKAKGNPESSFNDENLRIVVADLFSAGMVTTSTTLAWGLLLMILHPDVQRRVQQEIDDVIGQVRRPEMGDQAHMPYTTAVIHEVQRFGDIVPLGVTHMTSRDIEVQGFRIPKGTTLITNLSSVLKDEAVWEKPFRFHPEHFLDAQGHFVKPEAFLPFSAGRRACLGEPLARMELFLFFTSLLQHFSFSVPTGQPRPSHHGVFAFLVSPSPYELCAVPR
Matrix metalloproteinase-9, sequence (P14780 whole entry): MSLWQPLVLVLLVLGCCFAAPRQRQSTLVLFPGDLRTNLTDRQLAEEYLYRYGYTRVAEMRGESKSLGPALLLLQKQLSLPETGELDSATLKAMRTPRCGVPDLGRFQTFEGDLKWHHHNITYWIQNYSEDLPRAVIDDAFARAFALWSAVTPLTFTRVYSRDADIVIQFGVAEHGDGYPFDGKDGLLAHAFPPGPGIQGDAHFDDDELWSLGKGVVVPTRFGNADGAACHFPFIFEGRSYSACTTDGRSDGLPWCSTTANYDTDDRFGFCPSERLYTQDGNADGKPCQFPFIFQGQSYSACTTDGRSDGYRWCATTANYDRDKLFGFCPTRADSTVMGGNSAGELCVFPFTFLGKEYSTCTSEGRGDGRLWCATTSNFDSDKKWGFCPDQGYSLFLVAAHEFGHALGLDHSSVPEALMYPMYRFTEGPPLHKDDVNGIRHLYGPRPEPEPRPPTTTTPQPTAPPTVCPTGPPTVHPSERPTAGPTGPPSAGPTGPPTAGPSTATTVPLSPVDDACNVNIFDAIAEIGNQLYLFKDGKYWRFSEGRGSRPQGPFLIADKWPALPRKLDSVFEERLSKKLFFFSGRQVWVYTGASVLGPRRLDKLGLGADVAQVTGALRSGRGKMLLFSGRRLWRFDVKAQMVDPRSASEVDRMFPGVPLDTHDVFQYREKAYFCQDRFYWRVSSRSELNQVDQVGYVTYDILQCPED

CC(C)C[C@H](NC(=O)[C@H](CCN)NC(=O)[C@H](CC(=O)O)NC(=O)[C@H](CCC(=O)O)NC(=O)CCCCNC(=O)c1ccc(Oc2ccc(C(N)=O)cc2)cc1)C(=O)N(C)[C@@H](CCC(=O)O)C(=O)N1CCC[C@H]1CC(N)=O ({Benzoyl(4-OPh(4-CONH2))-Ava}-ED[Dab]L[NMeE][β3hP]-NH2)
solubility [1]: > 167 mg/mL | solubility [2]: > 18.2 mg/mL | solubility [3]: > 24.2 mg/mL | clearance [4]: 11.7 mL/min/kg | remaining at 1 h, 1 µM [5]: 98.2% | Vd [6]: 0.233 L/kg | half-life [7]: 14 min | remaining at 336 h [8]: 88% | IC50 (Interstitial collagenase): > 10000 nM | IC50 (Stromelysin-1): > 10000 nM | IC50 (Matrilysin): > 10000 nM | IC50 (Neutrophil collagenase): 3720 nM | IC50 [9]: > 8510 nM | IC50 [10]: 2220 nM | inhibition at […], 10 µM (CYP1A2): -4.2% | inhibition at 10 min, 10 µM (CYP2C19): -9.1% | inhibition at 10 min, 10 µM (CYP2D6): -2.5% | inhibition at 5 min, 10 µM (CYP2C9): 1.6% | inhibition at 5 min, 10 µM (CYP3A4): -2.4% | IC50 [11]: > 100000 nM | Activity (HepG2 [12]): 1.1% | Activity (HepG2 [13]): -0.9% | remaining at 1 h [14]: 101% | remaining at 6 h [15]: 110% | fraction unbound at 6 h, 10 ug/ml [16]: 0.552 | fraction unbound at 6 h, 10 ug/ml [17]: 0.518 | Activity (Mus musculus [18]): Active | Activity (Mus musculus [19]): Active | Cp(f) [20]: 0.48 nM | logD (physchem [21]): -0.21 | remaining at 336 h (physchem [22]): 95.1% | remaining at 336 h (physchem [23]): 95.4%

CC(C)C[C@H](NC(=O)[C@H](CCN)NC(=O)[C@H](CC(=O)O)NC(=O)[C@H](CC(N)=O)NC(=O)CCCCNC(=O)c1ccc(Oc2ccc(C(N)=O)cc2)cc1)C(=O)N(C)[C@@H](CCC(=O)O)C(=O)N1CCC[C@H]1CC(N)=O ({Benzoyl(4-OPh(4-CONH2))-Ava}-ND[Dab]L[NMeE][β3hP]-NH2)
remaining at 1 h, 1 µM [5]: 101% | remaining at 336 h [8]: 95.8% | clearance [24]: 12 mL/min/kg | Vd [25]: 0.267 L/kg | half-life [26]: 16 min | IC50 [27]: 0.051 nM | IC50 (Collagenase 3): 57 nM | remaining at 336 h (physchem [22]): 89.4% | remaining at 336 h (physchem [23]): 78%

CNC(=O)[C@H](Cc1c[nH]c2ccccc12)NC(=O)[C@@H](CC(=O)NO)CC(C)C [ILOMASTAT]
IC50 (Matrilysin): 5.1 nM | IC50 [10]: 1.1 nM | IC50 [28]: 0.46 nM | IC50 (Collagenase 3): 0.28 nM

— ChEMBL document CHEMBL5154944, “Discovery of Aryloxyphenyl-Heptapeptide Hybrids as Potent and Selective Matrix Metalloproteinase-2 Inhibitors for the Treatment of Idiopathic Pulmonary Fibrosis” (J Med Chem, 2022)
